14 compounds from patent publication US8222260B2, “Substituted 6-anilinopurine derivatives as inhibitors of cytokinin oxidase/dehydrogenase and preparations containing these derivatives” (Univerzita Palackego V Olomouci, priority 2007, dated 2012) can be followed below.

Where only a bound is given, the exact number is not on record here.

The target in one assay is T1, recombinant AtCKX2 (Arabidopsis thaliana, UniProt Q9FUJ3).
T1 sequence (Q9FUJ3 23-501): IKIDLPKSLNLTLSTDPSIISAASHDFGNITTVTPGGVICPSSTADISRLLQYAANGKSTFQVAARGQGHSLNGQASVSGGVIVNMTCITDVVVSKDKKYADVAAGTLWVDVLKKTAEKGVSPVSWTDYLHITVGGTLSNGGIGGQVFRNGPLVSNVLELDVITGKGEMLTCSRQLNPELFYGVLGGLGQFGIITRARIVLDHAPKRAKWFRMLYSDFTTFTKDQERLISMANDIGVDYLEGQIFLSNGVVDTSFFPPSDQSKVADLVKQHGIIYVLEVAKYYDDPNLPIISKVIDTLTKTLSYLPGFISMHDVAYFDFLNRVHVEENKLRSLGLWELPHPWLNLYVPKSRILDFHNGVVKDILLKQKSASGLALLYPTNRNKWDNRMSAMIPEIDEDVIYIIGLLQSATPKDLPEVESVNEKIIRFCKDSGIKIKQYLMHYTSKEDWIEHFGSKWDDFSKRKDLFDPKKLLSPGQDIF
The assay can be described thus: Inhibition of cytokinin oxidase/dehydrogenase activity (PMS/MTT microtitre plate assay). It is filed as biochemical. As to conditions: 30 μM iP as substrate, pH 7.4, 37° C.; means of three replicates; read-out: IC50, inhibition of recombinant AtCKX2. The protocol:
IC50 determinations were done using the assay in microtitre plate. Each well contained 100 μL of PMS/MTT [phenazine methosulfate/3-(4,5-dimethylthiazol-2-yl)-2,5-diphenyltetrazolium bromide] reaction mixture (final concentrations: 0.1 M KH2PO4, pH 7.4, 1 mM MTT, 0.2 mM PMS) containing the tested compound (3×10^−7 M-3×10^−4 M) and 30 μM N^6-isopentenyladenine (iP) as a substrate. 100 μL of cell-free growth medium of S. cerevisiae strain 23344c ura^− harboring the plasmid pYES2-AtCKX2 was directly used as a source of AtCKX2. Plates were incubated in the dark for […] at 37° C. and the enzymatic reaction was stopped by 25 μL of 35% acetic acid. The absorbance at 578 nm was measured using spectrophotometer Tecan. Absorbance of the sample without iP was subtracted.
The IC50 value, the compound concentration that inhibits the enzyme activity to 50%, was calculated from the obtained dose response curves. The values shown in Table 9 are means of three replicates and the entire test was repeated at least twice.
(In general: Tetrazolium dyes change colour on reduction, which living cells bring about.)

Assay [1] deals with cytokinin-dependent tobacco callus Nicotiana tabacum L. cv. Wisconsin 38. Kind of assay: Tobacco callus biotest (plant cell division). It is filed as cell-based. As to conditions: at the concentration with highest activity, relative to 10^−5 M kinetin.
A further assay addresses CRE1/AHK4 (Arabidopsis thaliana, UniProt Q9C5U0). The assay can be described thus: Activation of cytokinin receptors (E. coli KMI001 beta-galactosidase reporter). It is filed as cell-based. The following applies: 17 h incubation; n.a. means no activation. Put shortly:
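E. coli KMI001 carrying the receptor plasmid was grown in M9 + 0.1% casamino acids at 25 °C, diluted 1:600 and treated with compound (stock solutions 10^-7–5×10^-5 M). Supernatant β-galactosidase was read by 4-methylumbelliferyl galactoside hydrolysis (1 h, 37 °C, Na2CO3 stop). EC50 came from dose-response curves, triplicate means.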

Sequence of CRE1/AHK4 (Q9C5U0 whole entry): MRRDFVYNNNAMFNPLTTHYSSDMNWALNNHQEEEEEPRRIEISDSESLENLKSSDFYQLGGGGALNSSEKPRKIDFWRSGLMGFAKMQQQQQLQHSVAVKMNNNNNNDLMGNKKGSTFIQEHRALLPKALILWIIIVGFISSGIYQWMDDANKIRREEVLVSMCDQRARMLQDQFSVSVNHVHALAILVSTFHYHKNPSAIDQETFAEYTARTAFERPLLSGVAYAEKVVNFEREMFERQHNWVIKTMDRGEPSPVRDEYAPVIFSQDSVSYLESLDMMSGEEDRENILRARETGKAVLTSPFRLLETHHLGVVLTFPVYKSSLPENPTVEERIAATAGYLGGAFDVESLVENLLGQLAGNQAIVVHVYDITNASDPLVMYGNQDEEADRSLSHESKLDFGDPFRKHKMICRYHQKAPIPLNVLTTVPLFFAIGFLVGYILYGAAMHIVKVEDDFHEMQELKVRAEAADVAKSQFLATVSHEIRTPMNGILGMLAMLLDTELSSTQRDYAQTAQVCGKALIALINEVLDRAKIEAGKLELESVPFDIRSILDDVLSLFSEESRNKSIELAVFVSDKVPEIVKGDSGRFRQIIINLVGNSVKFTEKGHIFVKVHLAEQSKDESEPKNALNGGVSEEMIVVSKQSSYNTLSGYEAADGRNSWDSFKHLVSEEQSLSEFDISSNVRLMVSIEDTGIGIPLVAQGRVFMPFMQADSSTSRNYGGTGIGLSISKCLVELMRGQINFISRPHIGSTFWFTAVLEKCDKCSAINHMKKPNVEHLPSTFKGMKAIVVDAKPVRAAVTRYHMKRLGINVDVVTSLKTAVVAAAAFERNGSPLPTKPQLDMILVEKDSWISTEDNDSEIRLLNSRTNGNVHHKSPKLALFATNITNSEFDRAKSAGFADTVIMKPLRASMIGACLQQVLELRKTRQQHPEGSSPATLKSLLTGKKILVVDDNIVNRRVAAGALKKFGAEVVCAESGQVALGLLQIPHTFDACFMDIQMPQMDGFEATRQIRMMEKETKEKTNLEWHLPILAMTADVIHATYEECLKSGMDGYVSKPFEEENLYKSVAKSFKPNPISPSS

Consider `Clc1nc(Nc2ccccc2)c2[nH]cnc2n1` [Compound 1, 2-Chloro-6-anilinopurine], for which the IC50 at recombinant AtCKX2 was 22.6 µM.
Turning to `Clc1cccc(Nc2nc(Cl)nc3nc[nH]c23)c1` [Compound 3, 2-Chloro-6-(3-chloroanilino)purine], in assay [1], the “Activity (%) [10^−5 mol · l^−1 K = 100%]” value came to 110%. The compound further returned an EC50 on CRE1/AHK4 of 7.5 µM. The IC50 at recombinant AtCKX2 was found to be 6.3 µM.
On to `Clc1ccc(Nc2nc(Cl)nc3[nH]cnc23)cc1` [Compound 4], for which the “Activity (%) [10^−5 mol · l^−1 K = 100%]” value in assay [1] is listed as 102%. Besides, the IC50 on recombinant AtCKX2 turned out to be 24.1 µM.
As for `Fc1cccc(Nc2nc(Cl)nc3nc[nH]c23)c1` [Compound 6, 2-Chloro-6-(3-fluoroanilino)purine], the “Activity (%) [10^−5 mol · l^−1 K = 100%]” value in assay [1] is 119.7%. For the same compound, the IC50 at recombinant AtCKX2 amounted to 12.2 µM.
`Oc1cccc(Nc2nc(Cl)nc3nc[nH]c23)c1` [Compound 9, 2-Chloro-6-(3-hydroxyanilino)purine]: in assay [1], the “Activity (%) [10^−5 mol · l^−1 K = 100%]” value turned out to be 116.2%. This compound showed an EC50 on CRE1/AHK4 of 37.1 µM. Moreover, the IC50 at recombinant AtCKX2 stood at 3.5 µM.
In the case of `COc1cccc(Nc2nc(Cl)nc3nc[nH]c23)c1` [Compound 12, 2-Chloro-6-(3-methoxyanilino)purine], the “Activity (%) [10^−5 mol · l^−1 K = 100%]” value in assay [1] stood at 122%. A half-maximal response at CRE1/AHK4 (EC50) required 31.3 µM. The IC50 at recombinant AtCKX2 came out at 0.8 µM.
As for `Fc1nc(Nc2ccccc2)c2nc[nH]c2n1` [Compound 40], in assay [1], the “Activity (%) [10^−5 mol · l^−1 K = 100%]” value amounted to 108.1%. The EC50 at CRE1/AHK4 was 46.2 µM.
For `Fc1nc(Nc2cccc(Cl)c2)c2nc[nH]c2n1` [Compound 42], in assay [1], the “Activity (%) [10^−5 mol · l^−1 K = 100%]” value stood at 121%. The compound further displayed an EC50 at CRE1/AHK4 of 21 µM. For the same compound, the IC50 on recombinant AtCKX2 stood at 15.3 µM.
With `Oc1cccc(Nc2nc(F)nc3[nH]cnc23)c1` [Compound 48], in assay [1], the “Activity (%) [10^−5 mol · l^−1 K = 100%]” value was 104.2%. At CRE1/AHK4, this compound gave an EC50 of 49.6 µM. The IC50 at recombinant AtCKX2 was 11.8 µM.
In the case of `COc1cccc(Nc2nc(F)nc3nc[nH]c23)c1` [Compound 51, 2-Fluoro-6-(3-methoxyanilino)purine], in assay [1], the “Activity (%) [10^−5 mol · l^−1 K = 100%]” value is reported as 120.5%. Further, the EC50 on CRE1/AHK4 worked out at 43 µM. Also, at recombinant AtCKX2, the IC50 came out at 0.4 µM.
In the case of `Nc1nc(Nc2cccc(Cl)c2)c2nc[nH]c2n1` [Compound 66], the IC50 on recombinant AtCKX2 worked out at 25.6 µM.
In the case of `Nc1nc(Nc2cccc(O)c2)c2nc[nH]c2n1` [Compound 72], at CRE1/AHK4, the EC50 is > 50 µM.
Regarding `Fc1cccc(Nc2nc(S)nc3[nH]cnc23)c1` [Compound 83], the “Activity (%) [10^−5 mol · l^−1 K = 100%]” value in assay [1] is given as 102.5%. Also, on recombinant AtCKX2, the IC50 was found to be 22.6 µM.
`c1coc(CNc2ncnc3nc[nH]c23)c1` [Kinetin, 6-furfurylaminopurine, reference compound]: the “Activity (%) [10^−5 mol · l^−1 K = 100%]” value in assay [1] is 100%.

Broadly, the IC50 is the point on the concentration scale where inhibition reaches its midpoint. In general, EC50 refers to the concentration that produces a half-maximal response. A lower EC50 goes with an effect from little substance.
